What was measured:
[1] = tested on: velvetleaf; assay: Test A preemergence; type: in vivo, Abutilon theophrasti; details: for Velvetleaf plant response rating (0 to 100 scale): 125 g ai/ha; for Velvetleaf plant response rating: 500 g ai/ha, 0 to 100 scale where 0 is no effect and 100 is complete control
How it was run: (§1)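 Greenhouse pot test, loam/sand soil. Formulation: non-phytotoxic solvent mix plus surfactant. Pre: directed spray onto soil after sowing. Post: plants at 1–2 leaf, 2–10 cm. Rated visually vs untreated controls at ~10 d, 0 (no effect) to 100 (complete control).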

[2] = tested on: waterhemp; assay: Test C preemergence; type: in vivo, Amaranthus rudis; details: for Waterhemp plant response rating: preemergence; for Plant response rating, Waterhemp: Preemergence, 62 g ai/ha, scale 0 to 100, 0 no effect, 100 complete control
How it was run: (§2)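 Seeds were sown in loam–sand blend and sprayed preemergence, while plants at 1- to 4-leaf stage (2–18 cm) in peat-based medium received postemergence sprays; test chemicals were formulated in a non-phytotoxic solvent with surfactant. After 13–15 days in a greenhouse, injury was rated visually against controls, 0 (no effect) to 100 (complete control).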

[3] = tested on: barnyardgrass; assay: Test A preemergence; type: in vivo, Echinochloa crus-galli; details: for Barnyardgrass plant response rating (0 to 100 scale, 0 is no effect, 100 is complete control): 125 g ai/ha; for Barnyardgrass plant response rating: 500 g ai/ha, 0 to 100 scale where 0 is no effect and 100 is complete control
How it was run: as §1

[4] = tested on: Italian ryegrass; assay: Test C postemergence; type: in vivo, Lolium multiflorum; details: for Ryegrass, Italian plant response rating: 31 g ai/ha; for Ryegrass, Italian plant response rating / Plant response rating, Ryegrass, Italian: scale 0 to 100 (0 no effect, 100 complete control)
How it was run: as §2

[5] = tested on: pigweed; assay: Test C postemergence; type: in vivo, Amaranthus retroflexus; details: for Pigweed plant response rating: 31 g ai/ha; for Pigweed plant response rating / Plant response rating, Pigweed: scale 0 to 100 (0 no effect, 100 complete control)
How it was run: as §2

[6] = tested on: barnyardgrass; assay: Test C postemergence; type: in vivo, Echinochloa crus-galli; details: for Barnyardgrass plant response rating: 31 g ai/ha, 13 to 15 days; for Barnyardgrass plant response rating / Plant response rating, Barnyardgrass: scale 0 to 100 (0 no effect, 100 complete control)
How it was run: as §2

[7] = tested on: giant foxtail; assay: Test A preemergence; type: in vivo, Setaria faberii; details: for Foxtail, Giant plant response rating (0 to 100 scale): 125 g ai/ha; for Foxtail, Giant plant response rating: 500 g ai/ha, 0 to 100 scale where 0 is no effect and 100 is complete control
How it was run: as §1

[8] = tested on: barnyardgrass; assay: Test C preemergence; type: in vivo, Echinochloa crus-galli; details: for Barnyardgrass plant response rating: preemergence; for Plant response rating, Barnyardgrass: Preemergence, 62 g ai/ha, scale 0 to 100, 0 no effect, 100 complete control
How it was run: as §2

[9] = tested on: soybean; assay: Test C preemergence; type: in vivo, Glycine max; details: for Soybean plant response rating: preemergence; for Plant response rating, Soybean: Preemergence, 62 g ai/ha, scale 0 to 100, 0 no effect, 100 complete control
How it was run: as §2

[10] = tested on: corn; assay: Test C preemergence; type: in vivo, Zea mays; details: for Corn plant response rating: preemergence; for Plant response rating, Corn: Preemergence, 62 g ai/ha, scale 0 to 100, 0 no effect, 100 complete control
How it was run: as §2

[11] = tested on: corn; assay: Test C postemergence; type: in vivo, Zea mays; details: for Corn plant response rating: 31 g ai/ha; for Corn plant response rating / Plant response rating, Corn: scale 0 to 100 (0 no effect, 100 complete control)
How it was run: as §2

[12] = tested on: morningglory; assay: Test C preemergence; type: in vivo, Ipomoea coccinea; details: for Morningglory plant response rating: preemergence; for Plant response rating, Morningglory: Preemergence, 62 g ai/ha, scale 0 to 100, 0 no effect, 100 complete control
How it was run: as §2

[13] = tested on: waterhemp; assay: Test C postemergence; type: in vivo, Amaranthus rudis; details: for Waterhemp plant response rating: 31 g ai/ha; for Waterhemp plant response rating / Plant response rating, Waterhemp: scale 0 to 100 (0 no effect, 100 complete control)
How it was run: as §2

[14] = tested on: blackgrass; assay: Test C postemergence; type: in vivo, Alopecurus myosuroides; details: for Blackgrass plant response rating: 31 g ai/ha; for Blackgrass plant response rating / Plant response rating, Blackgrass: scale 0 to 100 (0 no effect, 100 complete control)
How it was run: as §2

[15] = tested on: blackgrass; assay: Test C preemergence; type: in vivo, Alopecurus myosuroides; details: for Blackgrass plant response rating: preemergence; for Plant response rating, Blackgrass: Preemergence, 62 g ai/ha, scale 0 to 100, 0 no effect, 100 complete control
How it was run: as §2

[16] = tested on: oilseed rape; assay: Test C preemergence; type: in vivo, Brassica napus; details: for Oilseed Rape plant response rating: preemergence; for Plant response rating, Oilseed Rape: Preemergence, 62 g ai/ha, scale 0 to 100, 0 no effect, 100 complete control
How it was run: as §2

[17] = tested on: ragweed; assay: Test C preemergence; type: in vivo, Ambrosia elatior; details: for Ragweed plant response rating: preemergence; for Plant response rating, Ragweed: Preemergence, 62 g ai/ha, scale 0 to 100, 0 no effect, 100 complete control
How it was run: as §2

[18] = tested on: lambsquarters; assay: Test C postemergence; type: in vivo, Chenopodium album; details: for Lambsquarters plant response rating: 31 g ai/ha; for Lambsquarters plant response rating / Plant response rating, Lambsquarters: scale 0 to 100 (0 no effect, 100 complete control)
How it was run: as §2

[19] = 125 g ai/ha, scale 0 (no effect) to 100 (complete control)
[20] = 250 g ai/ha, scale 0 (no effect) to 100 (complete control)
[21] = postemergence, visual rating, 13 to 15 days
[22] = 125 g ai/ha, postemergence, visual rating
[23] = Postemergence, 62 g ai/ha, 13 to 15 days
[24] = 16 g ai/ha, scale 0 to 100 (0 no effect, 100 complete control)
[25] = 16 g ai/ha, postemergence, 0 is no effect, 100 is complete control

N#Cc1cccc(Oc2ncc(Cl)cn2)c1-n1cc(I)cn1 [Compound 204]
Velvetleaf plant response rating (0 to 100 scale) [1]: 80
Velvetleaf plant response rating [1]: 100
Waterhemp plant response rating [2, 19]: 100
Waterhemp plant response rating [2, 20]: 98
Plant response rating, Waterhemp [2]: 100
Barnyardgrass plant response rating (0 to 100 scale, 0 is no effect, 100 is complete control) [3]: 70
Barnyardgrass plant response rating [3]: 100
Ryegrass, Italian plant response rating [4, 21]: 5
Plant response rating, Ryegrass, Italian [4, 22]: 10
Plant response rating (0 to 100), Ryegrass, Italian ([4]; 250 g ai/ha, postemergence): 10
Plant response rating, Ryegrass, Italian [4, 23]: 5
Pigweed plant response rating [5, 21]: 80
Plant response rating, Pigweed [5, 22]: 95
Plant response rating (0 to 100), Pigweed ([5]; 250 g ai/ha, postemergence): 98
Plant response rating, Pigweed [5, 23]: 95
Barnyardgrass plant response rating ([6]; postemergence, visual rating): 5
Plant response rating, Barnyardgrass [6, 22]: 5
Plant response rating (0 to 100), Barnyardgrass ([6]; 250 g ai/ha, postemergence): 35
Plant response rating, Barnyardgrass ([6]; Postemergence, 62 g ai/ha): 10
Foxtail, Giant plant response rating (0 to 100 scale) [7]: 100
Foxtail, Giant plant response rating [7]: 100
Barnyardgrass plant response rating [8, 19]: 100
Barnyardgrass plant response rating [8, 20]: 100
Plant response rating, Barnyardgrass [8]: 95
Soybean plant response rating [9, 19]: 65
Soybean plant response rating [9, 20]: 80
Plant response rating, Soybean [9]: 35
Corn plant response rating [10, 19]: 5
Corn plant response rating [10, 20]: 35
Plant response rating, Corn [10]: 0
Corn plant response rating [11, 21]: 10
Plant response rating, Corn [11, 22]: 20
Plant response rating (0 to 100), Corn ([11]; 250 g ai/ha, postemergence): 20
Plant response rating, Corn [11, 23]: 20
Morningglory plant response rating [12, 19]: 98
Morningglory plant response rating [12, 20]: 98
Plant response rating, Morningglory [12]: 98
Waterhemp plant response rating [13, 21]: 85
Plant response rating, Waterhemp [13, 22]: 90
Plant response rating (0 to 100), Waterhemp ([13]; 250 g ai/ha, postemergence): 95
Plant response rating, Waterhemp [13, 23]: 90
Blackgrass plant response rating [14, 21]: 5
Plant response rating, Blackgrass [14, 22]: 10
Plant response rating (0 to 100), Blackgrass ([14]; 250 g ai/ha, postemergence): 25
Plant response rating, Blackgrass [14, 23]: 5
Blackgrass plant response rating [15, 19]: 90
Blackgrass plant response rating [15, 20]: 95
Plant response rating, Blackgrass [15]: 80
Oilseed Rape plant response rating [16, 19]: 98
Oilseed Rape plant response rating [16, 20]: 100
Plant response rating, Oilseed Rape [16]: 95
Ragweed plant response rating [17, 19]: 5
Ragweed plant response rating [17, 20]: 85
Plant response rating, Ragweed [17]: 5
Lambsquarters plant response rating [18, 21]: 85
Plant response rating, Lambsquarters [18, 22]: 90
Plant response rating (0 to 100), Lambsquarters ([18]; 250 g ai/ha, postemergence): 95
Plant response rating, Lambsquarters [18, 23]: 80

N#Cc1cnn(-c2c(Oc3ncc(Cl)cn3)cccc2C(F)F)c1 [Compound 236]
Velvetleaf plant response rating (0 to 100 scale) [1]: 100
Velvetleaf plant response rating [1]: 100
Waterhemp plant response rating [2, 24]: 98
Waterhemp plant response rating [2, 19]: 100
Plant response rating, Waterhemp [2]: 98
Barnyardgrass plant response rating (0 to 100 scale, 0 is no effect, 100 is complete control) [3]: 100
Barnyardgrass plant response rating [3]: 100
Plant response rating (0 to 100), Ryegrass, Italian [4, 25]: 0
Ryegrass, Italian plant response rating [4, 21]: 0
Plant response rating, Ryegrass, Italian [4, 22]: 0
Plant response rating, Ryegrass, Italian [4, 23]: 0
Plant response rating (0 to 100), Pigweed [5, 25]: 60
Pigweed plant response rating [5, 21]: 90
Plant response rating, Pigweed [5, 22]: 95
Plant response rating, Pigweed [5, 23]: 90
Plant response rating (0 to 100), Barnyardgrass [6, 25]: 5
Barnyardgrass plant response rating ([6]; postemergence, visual rating): 5
Plant response rating, Barnyardgrass [6, 22]: 10
Plant response rating, Barnyardgrass ([6]; Postemergence, 62 g ai/ha): 5
Foxtail, Giant plant response rating (0 to 100 scale) [7]: 100
Foxtail, Giant plant response rating [7]: 100
Barnyardgrass plant response rating [8, 24]: 10
Barnyardgrass plant response rating [8, 19]: 100
Plant response rating, Barnyardgrass [8]: 98
Soybean plant response rating [9, 24]: 35
Soybean plant response rating [9, 19]: 95
Plant response rating, Soybean [9]: 90
Corn plant response rating [10, 24]: 0
Corn plant response rating [10, 19]: 90
Plant response rating, Corn [10]: 10
Plant response rating (0 to 100), Corn [11, 25]: 5
Corn plant response rating [11, 21]: 5
Plant response rating, Corn [11, 22]: 10
Plant response rating, Corn [11, 23]: 5
Morningglory plant response rating [12, 24]: 0
Morningglory plant response rating [12, 19]: 98
Plant response rating, Morningglory [12]: 55
Plant response rating (0 to 100), Waterhemp [13, 25]: 70
Waterhemp plant response rating [13, 21]: 70
Plant response rating, Waterhemp [13, 22]: 90
Plant response rating, Waterhemp [13, 23]: 90
Plant response rating (0 to 100), Blackgrass [14, 25]: 0
Blackgrass plant response rating [14, 21]: 5
Plant response rating, Blackgrass [14, 22]: 20
Plant response rating, Blackgrass [14, 23]: 5
Blackgrass plant response rating [15, 24]: 5
Blackgrass plant response rating [15, 19]: 90
Plant response rating, Blackgrass [15]: 90
Oilseed Rape plant response rating [16, 24]: 80
Oilseed Rape plant response rating [16, 19]: 100
Plant response rating, Oilseed Rape [16]: 100
Ragweed plant response rating [17, 24]: 15
Ragweed plant response rating [17, 19]: 90
Plant response rating, Ragweed [17]: 85
Plant response rating (0 to 100), Lambsquarters [18, 25]: 80
Lambsquarters plant response rating [18, 21]: 85
Plant response rating, Lambsquarters [18, 22]: 90
Plant response rating, Lambsquarters [18, 23]: 75

Source: patent US9695155B2, “Herbicidal substituted pyrimidinyloxy benzene compounds” (E. I. DU PONT DE NEMOURS AND COMPANY, priority 2013, dated 2017)
